The source of these data is patent US5631293A, “Preparation of amino acid-substituted benzoylguanidines as diagnostic agents” (priority 1994, dated 1997).

Where a name gives a salt, the structure may show the parent alone.

For series [1], the target named is T1, Na+/H^+ exchanger of rabbit erythrocytes (Oryctolagus cuniculus, UniProt P23791).
T1 construct: determine the Na^+ influx into the erythrocytes via Na^+ /H^+ exchange by flame photometry; endogenous in cells; host or cells: erythrocytes in blood from the ear arteries of cholesterol-fed White New Zealand rabbits (Ivanovas)
The series is described as follows: Inhibition of the Na+/H+ exchanger of rabbit erythrocytes (amiloride-sensitive Na+ influx, flame photometry). Type of series: cell-based, rabbit (White New Zealand). The conditions noted are these: cholesterol diet 2% six weeks, pH 7.4, 37° C. An excerpt:
Inhibition of the Na+/H^+ exchanger of rabbit erythrocytes
White New Zealand rabbits (Ivanovas) were given a standard diet with 2% of cholesterol for six weeks in order to activate the Na^+ /H^+ exchange and in this way to be able to determine the Na^+ influx into the erythrocytes via Na^+ /H^+ exchange by flame photometry. The blood was removed from the ear arteries and rendered noncoagulable by 25 IU of potassium-heparin. A portion of each sample was used for duplicate determination of the hematocrit by centrifugation. Aliquots of in each case 100 μl were used for measurement of the starting Na^+ content of the erythrocytes.
To determine the amiloride-sensitive sodium influx, 100 μl of each blood sample were incubated in 5 ml portions each of a hyperosmolar salt/sucrose medium (mmol/l: 140 NaCl, 3 KCl, 150 sucrose, 0.1 ouabain, 20 tris-hydroxymethylaminomethane) at pH 7.4 and 37° C. The erythrocytes were then washed three times with ice-cold MgCl2 /ouabain solution (mmol/l: 112 MgCl2, 0.1 ouabain) and hemolyzed in 2.0 ml of distilled water. The intracellular sodium content was determined by flame photometry.
The Na^+ net influx was calculated from the difference between the starting sodium values and the sodium content of the erythrocytes after incubation. The sodium influx which can be inhibited by amiloride resulted from the difference between the sodium content of the erythrocytes after incubation with and without 3×10^-4 mol/l of amiloride. This procedure was also followed with compounds according to the invention.

The subject of series [2] is artificially induced ventricular fibrillation on rat hearts. The conditions noted are these: isolated rat hearts, cited from earlier work.
Series [3] concerns disturbances in cardiac rhythm. The conditions noted are these: Circulation 79, 1257-63 (1989); cited from earlier work.

T1 sequence (P23791 whole entry): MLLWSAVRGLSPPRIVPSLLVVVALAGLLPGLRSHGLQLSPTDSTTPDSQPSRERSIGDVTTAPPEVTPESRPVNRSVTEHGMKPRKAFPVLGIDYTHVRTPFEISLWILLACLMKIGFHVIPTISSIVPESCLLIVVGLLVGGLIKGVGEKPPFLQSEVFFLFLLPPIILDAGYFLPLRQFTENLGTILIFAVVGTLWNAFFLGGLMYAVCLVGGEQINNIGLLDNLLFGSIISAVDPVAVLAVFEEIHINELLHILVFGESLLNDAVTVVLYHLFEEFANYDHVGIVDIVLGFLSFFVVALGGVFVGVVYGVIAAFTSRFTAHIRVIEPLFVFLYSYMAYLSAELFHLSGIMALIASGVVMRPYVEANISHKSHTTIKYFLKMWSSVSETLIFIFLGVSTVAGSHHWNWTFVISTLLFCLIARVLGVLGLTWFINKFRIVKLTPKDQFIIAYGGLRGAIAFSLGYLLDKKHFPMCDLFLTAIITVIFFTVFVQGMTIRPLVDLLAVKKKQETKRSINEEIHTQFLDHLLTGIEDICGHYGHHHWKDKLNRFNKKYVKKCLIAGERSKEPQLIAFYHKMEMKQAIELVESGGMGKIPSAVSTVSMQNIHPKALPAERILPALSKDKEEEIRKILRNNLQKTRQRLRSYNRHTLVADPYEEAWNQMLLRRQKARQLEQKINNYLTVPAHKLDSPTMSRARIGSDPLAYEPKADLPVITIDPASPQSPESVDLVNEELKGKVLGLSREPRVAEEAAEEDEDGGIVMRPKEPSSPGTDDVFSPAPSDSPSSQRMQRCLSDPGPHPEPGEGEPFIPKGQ

The IC50 is the concentration that inhibits the measured activity by half. A higher IC50 goes with a need for much substance. The compound `CC(C)(C)OC(=O)N[C@@H](Cc1ccc(Oc2ccc(C(=O)N=C(N)N)cc2S(C)(=O)=O)cc1)C(=O)O` [Example 1, N-tert-Butoxycarbonyl-4-[(4-guanidinocarbonyl-2-methylsulfonyl)phenoxy]-phenylalanine] yielded an IC50 in series [1] of 430 nM. Take `CS(=O)(=O)c1cc(C(=O)N=C(N)N)ccc1Oc1ccc(C[C@H](N)C(=O)O)cc1` [Example 2, 4-[(4-Guanidinocarbonyl-2-methylsulfonyl)phenoxy]phenylalanine]: the concentration for half-maximal inhibition (IC50) in series [1] turned out to be 1000 nM. This IC50 is about 2.3-fold higher than that of the compound before. As to `NC(N)=NC(=O)c1ccc(Oc2ccc(CC(N)C(=O)O)cc2)c(C(F)(F)F)c1` (stereo not shown) [Example 4, 4-[(4-Guanidinocarbonyl-2-trifluoromethyl)phenoxy]phenylalanine, dihydrochloride], half-maximal inhibition in series [1] (IC50) was put at 26 nM. In the case of `NC(N)=NC(=O)c1nc(Cl)c(N)nc1N` [amiloride], the “suppression of artificially induced ventricular fibrillation” value in series [2] was “suppressed completely”. In series [3], the antiarrhythmic effect result is given as “only weak”; the “side-effects accompanying the antiarrhythmic effect” value is “antihypertensive and saluretic action”. Take `CCN(c1nc(N)c(C(=O)N=C(N)N)nc1Cl)C(C)C` [ethylisopropylamiloride]: in series [2] (relative to amiloride), the “potency against ventricular fibrillation compared with amiloride” value is listed as “even more potent than amiloride”.
